# The source made the active and inactive calls.
# What was measured:
# [1] = target: E3 ubiquitin-protein ligase Mdm2/Protein Mdm4 (Homo sapiens, UniProt O15151+Q00987); assay: Mdm2-MdmX interaction inhibitors, dose response, luminescence detection (AID 504593); assay type: functional
# [2] = target: T1, Ubiquitin-conjugating enzyme E2 N (Homo sapiens, UniProt P61088); assay type: functional;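 also: Dose-response confirmation in a TR-FRET assay detecting UBC13-driven polyubiquitin chain formation, inhibition measured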
# T1 sequence (P61088 whole entry): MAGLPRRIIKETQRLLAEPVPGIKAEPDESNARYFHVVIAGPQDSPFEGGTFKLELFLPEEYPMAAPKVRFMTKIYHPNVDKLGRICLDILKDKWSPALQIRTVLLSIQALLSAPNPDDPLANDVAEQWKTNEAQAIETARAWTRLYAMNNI
# [3] = inhibitors of intracellular T. cruzi replication, confirmation, NIH3T3 host cells, beta-gal luminescence (AID 2044); assay type: functional, cell-based;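 also: intracellular parasites grown in NIH/3T3 mouse fibroblasts as host cells; luminescent beta-galactosidase reporter signal from transgenic T. cruzi replicating inside host cells; inhibitors lower the luminescence signal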
# [4] = cytotoxicity toward NIH3T3 fibroblasts, dose response, counter-screen, cell-based, ATP luminescence, mouse fibroblasts (AID 2010); assay type: functional;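 also: cells exposed to compound for about 90 hours before reading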
# Streptococcus = assay: Group A Streptococcus viability loss, dose response, counter-screen for streptokinase expression inhibitor project, luminescence, BacTiterGlo (AID 1915); assay type: functional, organism-based;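 also: potency for reduction of bacterial viability or growth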
# [5] = Vero E6 cell cytotoxicity, dose response, cytotoxicity control for non-replicating M. tuberculosis project, secondary assay (AID 492998); assay type: functional, VeroE6; details: Vero C1008
# [6] = target: T2, Microphthalmia-associated transcription factor (Homo sapiens, UniProt O75030); assay: TRPM1 promoter luciferase signal decrease, dose response, MITF inhibitor project, cell-based, SK-MEL-5, cherry-picked, set 3 (AID 493073); assay type: functional
# T2 sequence (O75030 whole entry): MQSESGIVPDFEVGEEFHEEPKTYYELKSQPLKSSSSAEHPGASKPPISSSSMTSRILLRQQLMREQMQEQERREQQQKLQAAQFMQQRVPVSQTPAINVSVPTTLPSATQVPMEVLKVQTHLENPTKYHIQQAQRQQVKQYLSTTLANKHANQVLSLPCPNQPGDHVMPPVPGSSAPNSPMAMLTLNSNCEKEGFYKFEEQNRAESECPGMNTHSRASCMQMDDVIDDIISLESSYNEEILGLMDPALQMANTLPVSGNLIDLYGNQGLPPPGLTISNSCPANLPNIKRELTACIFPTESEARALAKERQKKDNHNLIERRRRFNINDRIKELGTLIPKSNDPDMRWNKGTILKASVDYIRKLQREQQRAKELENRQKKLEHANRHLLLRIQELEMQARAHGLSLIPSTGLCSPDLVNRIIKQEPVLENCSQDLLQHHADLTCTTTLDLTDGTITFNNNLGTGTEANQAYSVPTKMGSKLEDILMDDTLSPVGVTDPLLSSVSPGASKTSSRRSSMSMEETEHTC
# cells = assay type: functional
# [7] = HepG2 cell cytotoxicity, dose response, cytotoxicity control for non-replicating M. tuberculosis project (AID 489018); assay type: functional; details: Mycobacterium tuberculosis
# [8] = THP-1 cell cytotoxicity, dose response, cytotoxicity control for non-replicating M. tuberculosis project (AID 489025); assay type: functional
# Protein Wnt-3a = Protein Wnt-3a (Mus musculus, UniProt P27467); assay: Wnt3a-driven reporter signaling inhibition, dose response, selectivity assay for Gli-SUFU antagonist project, Wnt-LIGHT cells, luminescence (AID 651570); assay type: functional; details: read-out: IC50_Mean;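 also: Wnt-LIGHT reporter cells stimulated with conditioned medium from Wnt3a-producing cells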
# Protein Wnt-3a, sequence (P27467 whole entry): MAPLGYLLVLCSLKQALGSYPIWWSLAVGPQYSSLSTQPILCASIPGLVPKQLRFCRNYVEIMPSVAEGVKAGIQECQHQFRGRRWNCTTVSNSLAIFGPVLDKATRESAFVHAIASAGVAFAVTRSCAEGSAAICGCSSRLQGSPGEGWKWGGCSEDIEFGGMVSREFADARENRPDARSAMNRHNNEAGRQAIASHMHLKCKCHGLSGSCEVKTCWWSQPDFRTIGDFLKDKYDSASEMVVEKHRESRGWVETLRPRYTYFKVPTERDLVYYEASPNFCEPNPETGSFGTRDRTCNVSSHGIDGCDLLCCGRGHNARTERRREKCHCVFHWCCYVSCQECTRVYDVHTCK
# [9] = test system: Streptococcus sp. 'group A'; assay: growth inhibition of control SK(-) GAS strain, dose response, counter-screen for streptokinase expression inhibitor project, luminescence, kanamycin, BacTiterGlo, confirmation (AID 1900); assay type: functional, organism-based
# [10] = target: G-protein coupled receptor 55 (Homo sapiens, UniProt Q9Y2T6); assay: GPR55 antagonists blocking LPI-driven arrestin recruitment, primary screen, imaging, U2OS, beta-arrestin-GFP, LPI agonist (AID 2013); assay type: functional;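 also: antagonist potency measured as reduced agonist-driven arrestin aggregation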
# G-protein coupled receptor 55, sequence (Q9Y2T6 whole entry): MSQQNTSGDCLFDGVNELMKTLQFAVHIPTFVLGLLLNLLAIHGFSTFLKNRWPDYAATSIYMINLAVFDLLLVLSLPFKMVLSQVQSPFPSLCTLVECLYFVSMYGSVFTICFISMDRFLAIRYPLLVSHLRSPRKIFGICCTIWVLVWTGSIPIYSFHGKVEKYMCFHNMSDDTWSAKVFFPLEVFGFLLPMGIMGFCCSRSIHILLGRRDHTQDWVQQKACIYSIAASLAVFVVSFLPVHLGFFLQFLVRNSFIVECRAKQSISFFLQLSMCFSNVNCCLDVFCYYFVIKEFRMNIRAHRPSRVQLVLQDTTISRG
# [11] = cytotoxicity in NIH/3T3 mouse fibroblasts, dose response, cytotoxicity control, cell-based, mouse embryonic fibroblasts, dry powder, set 2 (AID 493247); assay type: functional; details: Fibroblast
# Trypanosoma cruzi = assay: growth inhibition of intracellular Trypanosoma cruzi, dose response, cell-based, plate reader, dry powder, set 3 (AID 493197); assay type: functional
# HEK293 [12] = assay: cells; assay type: functional, cell-based; details: Homo sapiens
# HEK293 [13] = assay: cells; assay type: functional, cell-based; details: Homo sapiens; remark: listed apart in the source
# HEK293 [14] = assay: NOD2 signaling inhibitors in MDP-stimulated cells, cell-based, uHTS, luminescence (AID 2001); assay type: functional; details: Homo sapiens
# HEK293 [15] = assay: NOD1 signaling inhibitors, primary screen, cell-based, luminescence, uHTS (AID 1578); assay type: functional; details: Homo sapiens
# HEK293 [16] = assay: cells; assay type: functional, cell-based; details: Homo sapiens; remark: listed apart in the source
# [17] = target: Nucleotide-binding oligomerization domain-containing protein 2 (Homo sapiens, UniProt Q9HC29); assay: NOD2 signaling inhibitors, cell-based, luminescence, uHTS, HEK293 (AID 1566); assay type: functional
# Nucleotide-binding oligomerization domain-containing protein 2, sequence (Q9HC29 whole entry, the tested form may be a part): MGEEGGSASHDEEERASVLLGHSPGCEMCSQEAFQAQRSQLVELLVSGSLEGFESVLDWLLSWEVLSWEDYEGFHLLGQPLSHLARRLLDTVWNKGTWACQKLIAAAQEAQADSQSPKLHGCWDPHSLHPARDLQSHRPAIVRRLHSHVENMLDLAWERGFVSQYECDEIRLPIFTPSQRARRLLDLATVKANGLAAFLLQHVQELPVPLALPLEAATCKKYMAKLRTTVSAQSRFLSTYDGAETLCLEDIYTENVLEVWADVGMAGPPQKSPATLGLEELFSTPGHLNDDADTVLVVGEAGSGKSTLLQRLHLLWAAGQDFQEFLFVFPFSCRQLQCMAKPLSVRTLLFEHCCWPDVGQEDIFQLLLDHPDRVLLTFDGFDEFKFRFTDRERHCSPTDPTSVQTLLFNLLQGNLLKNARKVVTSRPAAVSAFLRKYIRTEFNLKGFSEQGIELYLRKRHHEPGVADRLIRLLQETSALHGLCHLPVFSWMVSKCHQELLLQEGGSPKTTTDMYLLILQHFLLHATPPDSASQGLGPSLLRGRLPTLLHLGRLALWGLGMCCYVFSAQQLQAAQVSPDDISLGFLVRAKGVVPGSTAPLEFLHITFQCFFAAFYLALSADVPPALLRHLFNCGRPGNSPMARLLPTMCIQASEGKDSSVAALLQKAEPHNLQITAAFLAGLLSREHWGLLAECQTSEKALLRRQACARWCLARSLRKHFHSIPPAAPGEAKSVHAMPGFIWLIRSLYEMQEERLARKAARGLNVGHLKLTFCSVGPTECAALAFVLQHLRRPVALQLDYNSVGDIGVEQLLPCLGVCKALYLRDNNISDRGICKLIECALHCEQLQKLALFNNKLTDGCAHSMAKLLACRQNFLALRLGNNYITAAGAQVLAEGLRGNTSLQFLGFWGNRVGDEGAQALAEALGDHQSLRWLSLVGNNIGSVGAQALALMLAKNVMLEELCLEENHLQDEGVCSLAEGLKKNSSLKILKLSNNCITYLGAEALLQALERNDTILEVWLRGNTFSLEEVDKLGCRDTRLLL
# [18] = target: T3, Type-1 angiotensin II receptor (Homo sapiens, UniProt P30556); assay: AT1 receptor agonists, dose response, selectivity assay for APJ receptor agonist project, cell-based, uHTS hits (AID 488865); assay type: functional;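 also: beta-arrestin recruitment to AT1 measured by enzyme fragment complementation luminescence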
# T3 sequence (P30556 whole entry): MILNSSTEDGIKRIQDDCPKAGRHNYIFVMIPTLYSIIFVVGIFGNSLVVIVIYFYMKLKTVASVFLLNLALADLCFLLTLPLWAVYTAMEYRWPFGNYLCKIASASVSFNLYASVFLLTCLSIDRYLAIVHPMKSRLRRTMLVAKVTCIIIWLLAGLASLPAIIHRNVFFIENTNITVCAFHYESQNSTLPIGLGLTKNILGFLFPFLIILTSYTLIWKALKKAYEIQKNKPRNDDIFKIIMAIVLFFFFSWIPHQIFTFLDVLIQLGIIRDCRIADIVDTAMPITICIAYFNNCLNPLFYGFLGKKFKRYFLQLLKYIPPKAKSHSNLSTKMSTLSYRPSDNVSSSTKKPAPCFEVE
# E3 ubiquitin-protein ligase Mdm2/Protein Mdm4, sequence (Q00987 whole entry): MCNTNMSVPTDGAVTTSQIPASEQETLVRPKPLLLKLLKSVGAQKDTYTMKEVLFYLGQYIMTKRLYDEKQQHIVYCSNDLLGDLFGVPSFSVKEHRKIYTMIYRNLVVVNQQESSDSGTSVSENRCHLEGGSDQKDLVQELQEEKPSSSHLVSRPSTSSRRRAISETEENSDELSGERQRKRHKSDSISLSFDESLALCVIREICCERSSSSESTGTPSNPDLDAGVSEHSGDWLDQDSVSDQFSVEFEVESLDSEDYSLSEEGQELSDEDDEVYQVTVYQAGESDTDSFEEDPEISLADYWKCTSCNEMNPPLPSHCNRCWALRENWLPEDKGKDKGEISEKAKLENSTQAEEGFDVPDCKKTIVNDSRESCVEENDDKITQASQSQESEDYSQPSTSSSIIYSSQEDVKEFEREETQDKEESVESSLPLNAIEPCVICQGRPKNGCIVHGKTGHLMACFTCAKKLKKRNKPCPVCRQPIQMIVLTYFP
# E3 ubiquitin-protein ligase Mdm2/Protein Mdm4, sequence (O15151 whole entry): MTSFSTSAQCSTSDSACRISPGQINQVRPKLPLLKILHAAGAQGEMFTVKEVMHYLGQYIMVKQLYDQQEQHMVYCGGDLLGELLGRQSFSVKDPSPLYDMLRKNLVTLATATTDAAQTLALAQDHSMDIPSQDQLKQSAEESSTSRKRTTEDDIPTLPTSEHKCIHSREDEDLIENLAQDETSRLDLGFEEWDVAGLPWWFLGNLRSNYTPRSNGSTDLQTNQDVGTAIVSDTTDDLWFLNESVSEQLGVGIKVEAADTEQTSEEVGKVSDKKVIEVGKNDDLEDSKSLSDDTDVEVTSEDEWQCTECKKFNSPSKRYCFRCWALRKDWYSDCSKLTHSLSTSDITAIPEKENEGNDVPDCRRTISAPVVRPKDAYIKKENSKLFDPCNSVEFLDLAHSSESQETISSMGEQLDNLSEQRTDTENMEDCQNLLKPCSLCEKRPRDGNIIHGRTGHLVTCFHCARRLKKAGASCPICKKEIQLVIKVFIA
structure (smiles),measurement,setting,value
COc1ccc(-c2cc3c(=O)n(CC(=O)NCCCN4CCC(N5CCCCC5)CC4)nc(C)n3n2)cc1,IC50,[1],9.38 µM (active)
same,IC50,[2],> 20 µM (inactive)
same,EC50,[3],3.09 µM (active)
same,EC50,[4],> 60 µM (not active)
CCCCCCn1c(=O)c(C(=O)Nc2cnccn2)c(O)c2ccccc21,EC50,Streptococcus,13 µM (active)
same,CC50,[5],7.38 µM (active)
same,AC50,[6],3.68 µM (active)
same,IC50,cells,5.03 µM (active)
same,CC50,[7],10.2 µM (active)
same,CC50,[8],3.51 µM (active)
same,IC50,Protein Wnt-3a,3.55 µM (active)
same,EC50,[9],3 µM (active)
Cc1ccccc1CSCCNC(=O)c1ccc(N(C)S(=O)(=O)c2ccccc2)cc1,IC50,[10],3 µM (active)
COc1ccc(CN2CCCC(C(=O)N3CCc4ccccc4C3)C2)cc1OC (centres undefined),AC50,[11],41.7 µM (active)
same,AC50,Trypanosoma cruzi,3.54 µM (active)
C=CCn1c(O)c(N=NC(=S)Nc2cccc(OC)c2)c2ccccc21,IC50,HEK293 [12],3.41 µM (active)
same,IC50,HEK293 [13],> 20 µM (inactive)
same,IC50,HEK293 [14],1.76 µM (active)
same,EC50,[3],0.589 µM (active)
same,EC50,HEK293 [15],> 20 µM (inactive)
same,IC50,HEK293 [16],> 20 µM (inactive)
same,EC50,[17],> 20 µM (inactive)
same,EC50,[4],4.49 µM (active)
COc1cc2c(cc1NC(=O)c1cc(-c3ccncc3)nc3ccc(C)cc13)oc1ccccc12,EC50,[18],> 100 µM (inactive)
